Measured values reported in US8557873B2, “Method for treating septic shock or endotoxemia” (priority 2009, dated 2013).
Entries after “also recorded” stand apart in the source; their conditions may differ.

Columns and labels:
[1] = system: E. coli lipopolysacharide (LPS) induced septic shock/endotoxemia in male balb/c mice; assay: Survival of mice injected with E. coli LPS, treated 30 minutes later with compound i.p., observed three days; format: in vivo; settings: for Survival rate (%) / Survival/total mice: 30 min after LPS 0.4 mg i.p., three days; for Therapeutic effect compared to the other compounds or to recombinant APC: comparison in words; for Concentration with the best therapeutic effect: concentration in 1 ml injected i.p., effect goes down above it; for Best treatment volume: per body weight of the mouse
Experimental: The mice used in this invention were male balb/c having body weights around 20 g, five to six weeks old. Each mouse was intraperitoneally injected with E. coli lipopolysacharide (LPS) 0.4 mg in 1 ml sterile saline. After 30 minutes, each mouse was intraperitoneally injected with one of the following compounds: amylamine, isoamylamine, 2-methylbutamine, n-methylbutamine. The above compounds were dissolved in 1 ml sterile saline to be pH 7.4. The E. coli LPS was serotype 0111:B4 obtained from Sigma (St. Louis, Mo.).
(§1) Each mouse was intraperitoneally injected with E. coli lipopolysaccharide (LPS) 0.4 mg in 1 ml saline, and was then injected with 1 ml amylamine (represented by SS1) of different concentrations (0%, 0.1%, and 0.3%) 30 minutes later. […] The therapeutic effect goes down if the dose above 0.3%. The best treatment volume of amylamine is 0.15 ml/Kg body weight of the mouse.
as §1, with “lipopolysacharide” for “lipopolysaccharide”, “and” for “and was”, “isoamylamine” for “amylamine”, “SS2)” for “SS1)”, “0.1%.” for “0.3%.”, “0.05 ml/kg” for “0.15 ml/Kg”
as §1, with “lipopolysacharide” for “lipopolysaccharide”, “and” for “and was”, “2-methylbutamine” for “amylamine”, “SS3)” for “SS1)”, “0.1%.” for “0.3%.”, “0.05 ml/kg” for “0.15 ml/Kg”
Each mouse was intraperitoneally injected with E. coli lipopolysacharide (LPS) 0.4 mg in 1 ml saline, and then 30 minutes later injected with 1 ml n-methylbutamine (represented by SS9) of different concentrations (0%, 0.1%, 0.3% and 1.0%) 30 minutes later. […] The therapeutic effect goes down if the dose above 1.0%. The best treatment volume of n-methylbutamine is 0.5 ml/kg body weight of the mouse. The dose of SS9 above 1.0% is toxic to mouse.

[2] = system: patients with severe sepsis; settings: cited from earlier work

Which results are given for CCCCNC [SS9, n-methylbutamine]?
Survival rate (%) ([1]; 0.1% in 1 ml i.p.): 39%; Survival/total mice ([1]; 0.1% in 1 ml i.p.): 5/13; Survival rate (%) ([1]; 0.3% in 1 ml i.p.): 54%; Survival/total mice ([1]; 0.3% in 1 ml i.p.): 7/13; Survival rate (%) ([1]; 1.0% in 1 ml i.p.): 62%; Survival/total mice ([1]; 1.0% in 1 ml i.p.): 8/13; Therapeutic effect compared to the other compounds or to recombinant APC [1]: higher therapeutic effects and decreased mortality over recombinant APC; Dose toxic to mouse ([1]; concentration in 1 ml i.p.): above 1.0%; Concentration with the best therapeutic effect [1]: 1.0%; Best treatment volume [1]: 0.5 mL/kg

With CC(C)CCN [SS2, isoamylamine] as the compound, how does the “Survival rate (%)” value ([1]; 0.1% in 1 ml i.p.) read?
The value was 83%.

What about the Survival/total mice ([1]; 0.1% in 1 ml i.p.) of the same compound?
Its Survival/total mice is 15/18.

And the “Survival rate (%)” value ([1]; 0.3% in 1 ml i.p.)?
The value was 50%.

And the Survival/total mice ([1]; 0.3% in 1 ml i.p.)?
The Survival/total mice was 9/18.

What about the “Therapeutic effect compared to the other compounds or to recombinant APC” value [1] of the same compound?
The value was “more significant therapeutic effect; also recorded: higher therapeutic effects and decreased mortality over recombinant APC”.

What about the “Concentration with the best therapeutic effect” value (“Concentration” for short) [1] of the same compound?
The value was 0.1%.

What about the Best treatment volume [1] of the same compound?
Its Best treatment volume is 0.05 mL/kg.

For CCC(C)CN (centres unmarked) [SS3, 2-methylbutamine], which “Survival rate (%)” value ([1]; 0.1% in 1 ml i.p.) is on record?
The value was 53%.

What about the Survival/total mice ([1]; 0.1% in 1 ml i.p.) of the same compound?
The Survival/total mice was 16/30.

And the “Survival rate (%)” value ([1]; 0.3% in 1 ml i.p.)?
Its value is 33%.

What about the Survival/total mice ([1]; 0.3% in 1 ml i.p.) of the same compound?
The Survival/total mice was 10/30.

And the “Therapeutic effect compared to the other compounds or to recombinant APC” value [1]?
The value was “higher therapeutic effects and decreased mortality over recombinant APC”.

And the “Concentration” value [1]?
Its value is 0.1%.

What about the Best treatment volume [1] of the same compound?
Its Best treatment volume is 0.05 mL/kg.

Which “Survival rate (%)” value ([1]; 0.1% in 1 ml i.p.) does the source give for CCCCCN [SS1, amylamine] here?
Its value is 18%.

And the Survival/total mice ([1]; 0.1% in 1 ml i.p.)?
The Survival/total mice was 3/17.

And the “Survival rate (%)” value ([1]; 0.3% in 1 ml i.p.)?
Its value is 53%.

And the Survival/total mice ([1]; 0.3% in 1 ml i.p.)?
Its Survival/total mice is 9/17.

What about the “Therapeutic effect compared to the other compounds or to recombinant APC” value [1] of the same compound?
Its value is “higher therapeutic effects and decreased mortality over recombinant APC”.

What about the “Concentration” value [1] of the same compound?
Its value is 0.3%.

And the Best treatment volume [1]?
Its Best treatment volume is 0.15 mL/kg.

For activated protein C, which “Absolute decrease in mortality” value [2] is on record?
Its value is 6.1%.
